Source: patent publication US20030109460A1, “Medicinal composition containing camptothecin derivative and ph regulating agent” (priority 2000, published 2003)
Where “and” joins values, the source holds several entries; their conditions need not be identical. Identical values can stand only once. Blank lines part the entries; values can stand above or below the compound they belong to.

Assays:
[1] = Long term stability of freeze-dried compound AS methanesulfonate (Example 8); type: physicochemical
Method: A 1.4 kg portion of maltose and 73 g (56 g as converted to free form) of compound AS methanesulfonate was dissolved in 22 L of water (AS methanesulfonate:maltose=1:19 by weight). […] After freeze drying, this was stored under a condition of 5° C. or 25° C. with a relative humidity of 60%, and then dissolved in water to the same concentration of the solution before freeze drying to measure pH. […] Colorless vials were used as the container.

[2] = Stability of freeze-dried compound AS methanesulfonate, effect of pH, maltose 50 mg/ml (Example 6); type: physicochemical; settings: colorless vials
Method: Maltose was added to an aqueous solution (1.0 mg/ml as a concentration converted to free form) of compound AS methanesulfonate to the final concentration of 50 mg/ml (AS methanesulfonate:maltose=1:38 by weight), and pH was adjusted to 2.5, 3.0, 3.5 or 4.0 by adding hydrochloric acid. […] Colorless vials were used as the container.

[3] = Changes in pH by freeze drying treatment (Example 7); type: physicochemical; settings: for pH Before freeze drying / pH After freeze drying: Compound AS 2 mg, hydrochloric acid; for pH After freeze drying: redissolved to same concentration
Method: The pharmaceutical composition containing compound AS methanesulfonate was produced according to the formulation and production scale shown in Table 7 (AS methanesulfonate:maltose=1:19 or 1:38 by weight), and pH of the solution before freeze drying and pH of a solution prepared by dissolving the preparation after freeze drying in water to the same concentration of the solution before freeze drying were measured.

[4] = Stability of freeze-dried compound AS methanesulfonate, effect of pH, maltose 100 mg/ml (Example 5); type: physicochemical; settings: brown vials
Method: Maltose was added to an aqueous solution (1.0 mg/ml as a concentration converted to free form) of compound AS methanesulfonate to the final concentration of 100 mg/ml (AS methanesulfonate:maltose=1:77 by weight), and pH was adjusted to 3.5, 4.0 or 4.5 by adding hydrochloric acid. […] Brown vials were used as the container.

[5] = Stability of freeze-dried compound AS methanesulfonate, effect of adding amount of maltose (Example 4); type: physicochemical; settings: brown vials
[6] = tested on: tumor; experiment: Anti-tumor effect
[7] = Solubility under strongly acidic condition; type: physicochemical; settings: strongly acidic condition of pH 2.0 or less; salting out
Description: Generally, camptothecin derivatives have a lactone ring structure, so it is considered that reduction of the drug effect occurs due to ring-opening of the lactone ring in the structure in the alkaline range. In consequence, it is desirable that a pharmaceutical composition containing a camptothecin derivative having a lactone ring or a salt thereof is maintained within acidic range for the purpose of keeping the lactone ring under closed state. […] From two viewpoints of keeping closed state of lactone ring and ensuring proper solubility of the compound, it is desirable that the pharmaceutical composition of the invention is maintained within a weakly acidic condition by formulating a pH-adjusting substance. In this connection, when the pharmaceutical composition is an aqueous preparation, the term “a weakly acidic condition” as used herein means from about pH 3 to 6, and when the pharmaceutical composition is a freeze-dried preparation, it means that pH of an aqueous solution prepared by dissolving in water is from about pH 3 to 6.

[8] = Stability against heat and light; type: physicochemical; settings: severe treatment with heat and light
Method: In consequence, overkill approach and the like sterilization methods which accompany heating are not suited for the pharmaceutical composition of the invention. In order to obtain a substantially sterilized condition, it is desirable to employ a method in which the pharmaceutical composition is prepared under aseptic condition, a method in which a filter sterilization-treated solution of the pharmaceutical composition is made into a freeze-dried preparation, and the like. Particularly, the method for making a freeze-dried preparation is desirable. In addition, it is desirable for its preservation to use a container having shading ability. For example, brown vials and the like can be cited.

[9] = 25° C., 60% R.H., Starting time
[10] = Production scale 28.0 L, Maltose 50 mg, water total vol. 1 ml
[11] = Production scale 90.0 L, Maltose 100 mg, water total vol. 2 ml

Total analogous matter weight % ([1]; 5° C., 1 month): 0.32 weight % | pH ([1]; 5° C., 1 month): 3.9 | Total analogous matter weight % ([1]; 5° C., 3 months): 0.33 weight % | pH ([1]; 5° C., 3 months): 3.9 | Total analogous matter weight % ([1]; 5° C., 6 months): 0.33 weight % | pH ([1]; 5° C., 6 months): 3.7 | Total analogous matter weight % ([1]; 5° C., 9 months): 0.33 weight % | pH ([1]; 5° C., 9 months): 4.0 | Total analogous matter weight % ([1]; 5° C., 12 months): 0.33 weight % | pH ([1]; 5° C., 12 months): 3.9 | Total analogous matter weight % ([1]; 5° C., 24 months): 0.33 weight % | pH ([1]; 5° C., 24 months): 4.1 | Total analogous matter weight % ([1]; 5° C., 30 months): 0.33 weight % | pH ([1]; 5° C., 30 months): 4.6 | Total analogous matter weight % ([1]; 5° C., 37 months): 0.32 weight % | pH ([1]; 5° C., 37 months): 3.7 | Total analogous matter weight % ([1]; 5° C., Starting time, colorless vials): 0.33 weight % | pH ([1]; 5° C., Starting time, redissolved in water): 3.8 | Total analogous matter weight % ([1]; 25° C., 60% R.H., 1 month): 0.33 weight % | pH ([1]; 25° C., 60% R.H., 1 month): 3.9 | Total analogous matter weight % ([1]; 25° C., 60% R.H., 3 months): 0.33 weight % | pH ([1]; 25° C., 60% R.H., 3 months): 3.9 | Total analogous matter weight % ([1]; 25° C., 60% R.H., 6 months): 0.33 weight % | pH ([1]; 25° C., 60% R.H., 6 months): 3.7 | Total analogous matter weight % ([1]; 25° C., 60% R.H., 9 months): 0.33 weight % | pH ([1]; 25° C., 60% R.H., 9 months): 4.0 | Total analogous matter weight % ([1]; 25° C., 60% R.H., 12 months): 0.33 weight % | pH ([1]; 25° C., 60% R.H., 12 months): 4.0 | Total analogous matter weight % ([1]; 25° C., 60% R.H., 24 months): 0.33 weight % | pH ([1]; 25° C., 60% R.H., 24 months): 4.3 | Total analogous matter weight % ([1]; 25° C., 60% R.H., 37 months): 0.33 weight % | pH ([1]; 25° C., 60% R.H., 37 months): 3.9 | Total analogous matter weight % [1, 9]: 0.33 weight % | pH [1, 9]: 3.8 | formation of the total analogous matter as weight % ([1]; until 37 months): ≤ 0.33% | Weight % of total analogous matter ([2]; pH 2.5, 60° C., 2 weeks): 21.43 Weight % | Weight % of total analogous matter ([2]; pH 2.5, Starting time): 1.05 Weight % | Weight % of total analogous matter ([2]; pH 3.0, 60° C., 2 weeks): 10.64 Weight % | Weight % of total analogous matter ([2]; pH 3.0, Starting time): 0.42 Weight % | Weight % of total analogous matter ([2]; pH 3.5, 60° C., 2 weeks): 5.07 Weight % | Weight % of total analogous matter ([2]; pH 3.5, Starting time): 0.27 Weight % | Weight % of total analogous matter ([2]; pH 4.0, 60° C., 2 weeks): 1.83 Weight % | Weight % of total analogous matter ([2]; pH 4.0, Starting time): 0.23 Weight % | change of pH by freeze drying treatment ([3]; maltose 1:19 or 1:38 by weight): hardly changes | Weight % of total analogous matter ([4]; pH 3.5, 40° C., 75% R.H., 1 month): 3.12 Weight % | Weight % of total analogous matter ([4]; pH 3.5, 60° C., 2 weeks): 7.52 Weight % | Weight % of total analogous matter ([4]; pH 3.5, Starting time): 0.72 Weight % | Weight % of total analogous matter ([4]; pH 4.0, 40° C., 75% R.H., 1 month): 1.36 Weight % | Weight % of total analogous matter ([4]; pH 4.0, 60° C., 2 weeks): 3.13 Weight % | Weight % of total analogous matter ([4]; pH 4.0, Starting time): 0.50 Weight % | Weight % of total analogous matter ([4]; pH 4.5, 40° C., 75% R.H., 1 month): 0.51 Weight % | Weight % of total analogous matter ([4]; pH 4.5, 60° C., 2 weeks): 0.75 Weight % | Weight % of total analogous matter ([4]; pH 4.5, Starting time): 0.40 Weight % | Weight % of total analogous matter ([5]; Maltose 50 mg/ml, 40° C., 75% R.H., 1 month, pH 4.0): 0.52 Weight % | Weight % of total analogous matter ([5]; Maltose 50 mg/ml, 50° C., 1 month, pH 4.0): 0.80 Weight % | Weight % of total analogous matter ([5]; Maltose 50 mg/ml, Starting time, pH 4.0 hydrochloric acid): 0.34 Weight % | Weight % of total analogous matter ([5]; Maltose 100 mg/ml, 40° C., 75% R.H., 1 month, pH 4.0): 1.36 Weight % | Weight % of total analogous matter ([5]; Maltose 100 mg/ml, 50° C., 1 month, pH 4.0): 2.24 Weight % | Weight % of total analogous matter ([5]; Maltose 100 mg/ml, Starting time, pH 4.0): 0.50 Weight %
SMILES: CC[C@@]1(O)C(=O)OCc2c1cc1n(c2=O)Cc2c-1nc1cc(F)c(C)c3c1c2[C@@H](N)CC3.CS(=O)(=O)O [compound AS methanesulfonate, (1S,9S)-1-amino-9-ethyl-5-fluoro-2,3-dihydro-9-hydroxy-4-methyl-1H,12H-benzo[de]pyrano[3′,4′:6,7]indolizino[1,2-b]quinoline-10,13(9H,15H)-dione methanesulfonate]

SMILES: CC[C@@]1(O)C(=O)OCc2c1cc1n(c2=O)Cc2c-1nc1cc(F)c(C)c3c1c2[C@H](N)CC3 [compound AR, (1R,9S)-1-amino-9-ethyl-5-fluoro-2,3-dihydro-9-hydroxy-4-methyl-1H,12H-benzo[de]pyrano[3′,4′:6,7]indolizino[1,2-b]quinoline-10,13 (9H,15H)-dione]
anti-tumor effect [6]: potent anti-tumor effect

pH Before freeze drying [3, 10]: 3.73 and 3.67 | pH After freeze drying [3, 10]: 4.00 and 3.83 | pH Before freeze drying [3, 11]: 3.85 | pH After freeze drying [3, 11]: 3.97
SMILES: CC[C@@]1(O)C(=O)OCc2c1cc1n(c2=O)Cc2c-1nc1cc(F)c(C)c3c1c2[C@@H](N)CC3 [compound AS, (1S,9S)-1-amino-9-ethyl-5-fluoro-2,3-dihydro-9-hydroxy-4-methyl-1H,12H-benzo[de]pyrano[3′,4′:6,7]indolizino[1,2-b]quinoline-10,13(9H,15H)-dione]
anti-tumor effect [6]: potent anti-tumor effect | anti-tumor effect relative to compound AR ([6]; compound AS versus compound AR): about two times higher

solubility [7]: considerably reduced | stability against heat and light [8]: considerably unstable
SMILES: CC[C@@]1(O)C(=O)OCc2c1cc1n(c2=O)Cc2c-1nc1cc(F)c(C)c3c1c2C(N)CC3 (stereo partly drawn) [compound A, (9S)-1-amino-9-ethyl-5-fluoro-2,3-dihydro-9-hydroxy-4-methyl-1H,12H-benzo[de]pyrano[3′,4′:6,7]indolizino[1,2-b]quinoline-10,13(9H,15H)-dione]
